This is an account of results in publication PMC11923636, “Synthesis, Pharmacological Evaluation, and Molecular Modeling of Phthalimide Derivatives as Monoamine Oxidase and Cholinesterase Dual Inhibitors” (ACS Omega, 2025).

Data set [1] concerns the target T1, equine serum lyophilized BChE (Equus caballus, UniProt P81908).
T1 construct: Equine Serum lyophilized BChE; from tissue; host or cells: equine serum
The experiment in a line: biochemical. Conditions: mean ± SEM, n = 3; read-out: IC50 (μM) ± SEM eqBChE. Here is the method:
(§1) The synthesized compounds were evaluated for their inhibition potential against cholinesterases (Electrophorus electricus AChE and equine serum lyophilized BChE).
(§2) The cholinesterase in vitro bioassay for the synthesized compounds was performed using already reported protocols.[29],[30] Ellman’s assay method was used to study the inhibition of Electrophorus electricus AChE and Equine Serum lyophilized BChE. Stock solutions of synthesized compounds were prepared in potassium phosphate buffer (pH 8.0). A sufficient amount of 5,5-dithio-bis-2-nitrobenzoic acid (DTNB, Ellman’s reagent), a stock solution of synthesized compounds, and 0.03 U/ml of the enzyme (AChE or BChE) were added to a 96-well plate and incubated at 30 °C for 10 min. Subsequently, 1 mM ATCI or BTCI was added, and the reaction mixture was incubated for 15 min. […] Sample concentration was plotted against inhibitory activity to obtain IC50 values.

For the next data set, the target named is T2, human MAO-B (Homo sapiens, UniProt P27338).
T2 sequence (P27338 1-520): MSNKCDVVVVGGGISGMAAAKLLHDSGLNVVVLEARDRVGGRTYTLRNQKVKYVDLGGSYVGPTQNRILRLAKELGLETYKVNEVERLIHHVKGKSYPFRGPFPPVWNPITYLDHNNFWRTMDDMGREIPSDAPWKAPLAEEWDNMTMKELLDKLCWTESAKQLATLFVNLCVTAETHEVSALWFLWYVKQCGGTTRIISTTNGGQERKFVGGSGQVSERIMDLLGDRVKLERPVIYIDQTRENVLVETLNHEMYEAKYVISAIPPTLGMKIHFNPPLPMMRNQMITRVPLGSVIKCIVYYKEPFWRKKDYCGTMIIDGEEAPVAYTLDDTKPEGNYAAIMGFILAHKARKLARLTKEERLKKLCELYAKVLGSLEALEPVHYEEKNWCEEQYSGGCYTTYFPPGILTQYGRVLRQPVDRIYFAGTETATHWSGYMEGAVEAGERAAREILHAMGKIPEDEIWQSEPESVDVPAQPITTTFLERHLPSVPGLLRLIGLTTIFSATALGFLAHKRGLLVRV
Kind of data set: Human MAO isoform inhibition assay (fluorometric), MAO-B. The class given is biochemical. Conditions: for IC50: mean ± SEM, n = 3, read-out: IC50 (μM) ± SEM hMAO-B; for SI (IC50 hMAO-A/IC50 hMAO-B): selectivity index. Here is the method:
(§3) The human MAO isoform assay was also carried out using a fluorescence-based assay protocol according to the reported literature.
(§4) Inhibitory activity of the synthesized compounds against MAO isoforms, specifically human MAO-A and MAO-B, was determined by using benzylamine and tyramine substrates in the dark (protected from light) in a 96-well plate by an already reported fluorometric method.[31],[32]

For a further data set, the target named is T3, mice brain MAO-B (Mus musculus, UniProt Q8BW75).
T3 construct: from tissue; host or cells: ICR mouse brain homogenate pellet
T3 sequence (Q8BW75 1-520): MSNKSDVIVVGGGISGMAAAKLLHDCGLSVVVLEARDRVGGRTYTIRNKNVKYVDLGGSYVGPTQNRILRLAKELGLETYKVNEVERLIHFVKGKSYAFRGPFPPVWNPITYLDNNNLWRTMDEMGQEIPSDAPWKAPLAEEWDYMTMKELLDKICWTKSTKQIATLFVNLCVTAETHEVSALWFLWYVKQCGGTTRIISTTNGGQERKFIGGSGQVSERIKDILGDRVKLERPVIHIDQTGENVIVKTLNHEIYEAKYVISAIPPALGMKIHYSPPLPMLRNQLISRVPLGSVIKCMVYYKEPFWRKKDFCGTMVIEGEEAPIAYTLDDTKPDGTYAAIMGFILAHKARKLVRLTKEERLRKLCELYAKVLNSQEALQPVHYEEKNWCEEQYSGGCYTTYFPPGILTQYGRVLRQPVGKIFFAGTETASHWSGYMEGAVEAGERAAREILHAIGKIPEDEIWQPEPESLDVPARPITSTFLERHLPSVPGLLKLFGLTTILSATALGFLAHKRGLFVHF
The experiment in a line: Ex vivo MAO-B inhibition reversibility time course. Type of data set: in vivo, ICR mice. Conditions: single ip dose. Here is the method: After the experiments, the animals were euthanized following Animal Euthanasia (AVMA Guidelines) guidelines to ensure humane treatment. Five groups of ICR mice were administered test samples by intraperitoneal injection, and the intact brains were excised and were then frozen for almost 1 h (−20 °C). Brain tissue ([…]) was suspended in sucrose (0.3 M) using a homogenizer (Ultra-Turrax T8; at 60 Hz for almost 70 s) and then subjected to centrifugation for 10 min at 1500 rpm (4 °C). 200 μL of supernatant was collected and centrifuged for 20 min at 15,000 rpm and 4 °C. Subsequently, the formed pellet was resuspended in KHPO4 solution (pH 7.2, 600 μL) and then subjected to 20 min centrifugation at 15,000 rpm and 4 °C. This process was repeated three times. Enzyme activity was determined using an Assay Kit (monoamine oxidase). […] The mice were then sacrificed at intervals ranging from 0.5 to 48 h.[34]

The next data set in a line: in vitro. As to conditions: for Papp at 20 h: PAMPA, pH 7.4; for prediction of CNS penetration: class from PAMPA-BBB Pe. Here is the method: A fundamental requirement for the effectiveness of anti-AD drugs is their capability to traverse the BBB (blood–brain barrier). […]
Briefly, synthesized compounds were first dissolved in DMSO (10 mM) that was further diluted by the addition of phosphate buffer ([…]) having a pH of 7.4. PBL dissolved in dodecane was used for coating the membranes of the donor plates. Then, the test compound (0.2 mL) was added to the plate, followed by PBS (0.2 mL; pH = 7.4) to the acceptor plate, which was further placed under the donor plate in order to form a “sandwich”. […] A UV plate reader was employed for the measurements of the drug concentration in donor, acceptor, and reference wells. The permeability (Pe) of the compounds was measured by using the following formula. [drawing 2]

For data set [2], the target named is Electrophorus electricus AChE (Electrophorus electricus, UniProt O42275). The experiment in a line: biochemical. Type of data set: biochemical. Conditions: for IC50: mean ± SEM, n = 3, read-out: IC50 (μM) ± SEM eeAChE; for SI = IC50 of BChE/IC50 of AChE: selectivity index. As to the method:
as §1, §2

Another data set addresses T4, human MAO-A (Homo sapiens, UniProt P21397).
T4 sequence (P21397 1-527): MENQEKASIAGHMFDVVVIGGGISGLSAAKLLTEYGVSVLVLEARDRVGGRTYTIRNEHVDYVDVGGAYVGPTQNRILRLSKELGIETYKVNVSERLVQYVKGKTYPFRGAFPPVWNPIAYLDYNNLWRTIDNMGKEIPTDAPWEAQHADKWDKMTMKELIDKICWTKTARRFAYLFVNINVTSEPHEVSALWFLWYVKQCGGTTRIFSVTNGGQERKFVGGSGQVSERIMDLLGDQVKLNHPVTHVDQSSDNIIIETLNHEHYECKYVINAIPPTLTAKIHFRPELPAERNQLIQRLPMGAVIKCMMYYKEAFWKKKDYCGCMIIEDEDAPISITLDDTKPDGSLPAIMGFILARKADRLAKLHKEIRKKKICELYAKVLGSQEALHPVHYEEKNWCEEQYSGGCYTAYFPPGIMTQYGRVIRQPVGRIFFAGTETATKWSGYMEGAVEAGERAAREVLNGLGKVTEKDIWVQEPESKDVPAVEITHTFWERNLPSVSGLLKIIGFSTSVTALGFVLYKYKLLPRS
Kind of data set: Human MAO isoform inhibition assay (fluorometric), MAO-A. Conditions: mean ± SEM, n = 3; read-out: IC50 (μM) ± SEM hMAO-A. Type of data set: biochemical. As to the method:
as §3, §4

The subject of data set [3] is SH-SY5Y neuroblastoma cells. The class given is cell-based. As to conditions: MTT; for cytotoxicity on SH-SY5Y cells: 10, 20, 30, and 50 μM; for neurotoxicity on SH-SY5Y cells: higher concentrations (100 μM). As to the method:
To determine the biological safety of the synthesized compounds, we performed a cytotoxicity study using a human SH-SY5Y neuroblastoma cell line.
SH-SY5Y cells were cultured in 96-well plates (1 × 10^5 cells/well) in a medium containing fetal bovine serum (FBS), penicillin (100 U/ml), and streptomycin ([…]) at 37 °C and 5% CO2. […] Subsequently, synthesized compounds were added to cells, followed by the addition of 20 μL of MTT reagent (10 mg/mL) at the specified time. Plates were then incubated at 37 °C and 5% CO2, and purple color precipitate formation was observed by a microscope. Lastly, DMSO ([…]) was added to solubilize precipitates, and the plates were read at 570 nm to determine the cell viability. Results are expressed as percentage growth of cells, in which their viability is compared to control cells in the presence or absence of synthesized compounds and a standard. The following formula was utilized for the measurement of the % cell viability. [drawing 1]

The next data set addresses AChE. As to conditions: cited from earlier work.
Another data set has as its target BChE. Conditions: read-out: BChE enzyme inhibition dissociation constant (Ki value); cited from earlier work.
For the next data set, the system named is MAO-B. As to conditions: weak inhibition compared to the standard; ref number not given; cited from earlier work.

Several values for one entry are separate records, joined by “and”; a condition that tells them apart may be missing. Equal values may be shown once. Marks after values point to notes of the source that are not given here.

Chain of Electrophorus electricus AChE (O42275 24-633): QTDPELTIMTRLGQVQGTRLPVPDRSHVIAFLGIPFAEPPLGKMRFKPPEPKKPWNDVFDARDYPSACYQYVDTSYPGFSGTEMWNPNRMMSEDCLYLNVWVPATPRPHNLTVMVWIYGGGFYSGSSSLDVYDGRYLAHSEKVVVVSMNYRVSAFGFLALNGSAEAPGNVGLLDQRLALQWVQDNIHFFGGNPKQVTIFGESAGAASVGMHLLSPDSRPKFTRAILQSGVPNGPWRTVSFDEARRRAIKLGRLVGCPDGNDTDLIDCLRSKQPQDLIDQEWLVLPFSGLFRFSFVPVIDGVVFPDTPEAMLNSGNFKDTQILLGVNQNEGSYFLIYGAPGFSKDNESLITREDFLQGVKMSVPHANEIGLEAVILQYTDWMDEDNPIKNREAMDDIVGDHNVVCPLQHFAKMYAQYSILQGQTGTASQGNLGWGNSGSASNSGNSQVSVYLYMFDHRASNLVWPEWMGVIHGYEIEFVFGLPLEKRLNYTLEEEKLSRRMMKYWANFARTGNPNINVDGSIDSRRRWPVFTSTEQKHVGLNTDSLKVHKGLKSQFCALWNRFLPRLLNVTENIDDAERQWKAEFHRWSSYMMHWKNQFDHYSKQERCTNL
T1 sequence (P81908 whole entry): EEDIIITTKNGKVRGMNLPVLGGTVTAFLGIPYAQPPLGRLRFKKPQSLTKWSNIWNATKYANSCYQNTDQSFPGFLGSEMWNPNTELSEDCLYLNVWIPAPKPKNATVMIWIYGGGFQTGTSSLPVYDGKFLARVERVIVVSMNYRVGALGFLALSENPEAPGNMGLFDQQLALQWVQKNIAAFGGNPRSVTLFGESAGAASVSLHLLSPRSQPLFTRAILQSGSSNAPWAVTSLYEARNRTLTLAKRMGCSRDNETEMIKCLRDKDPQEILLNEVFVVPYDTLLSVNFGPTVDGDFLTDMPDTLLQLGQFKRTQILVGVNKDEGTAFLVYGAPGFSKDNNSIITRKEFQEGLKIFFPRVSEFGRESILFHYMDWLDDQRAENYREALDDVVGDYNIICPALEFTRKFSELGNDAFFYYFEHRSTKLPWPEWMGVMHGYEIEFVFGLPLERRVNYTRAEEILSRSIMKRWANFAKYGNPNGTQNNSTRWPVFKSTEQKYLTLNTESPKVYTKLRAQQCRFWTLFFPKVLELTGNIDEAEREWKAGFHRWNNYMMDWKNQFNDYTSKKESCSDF

As for `O=C1c2ccccc2C(=O)N1Cc1ccc(-c2ccc(C(F)(F)F)cc2)cc1` [3e], the IC50 (commonly the concentration that inhibits the measured activity by half) in [1] came out at 6.29 ± 0.17 µM. Further, on human MAO-B, the IC50 is 0.11 ± 0.01 µM and the “SI (IC50 hMAO-A/IC50 hMAO-B)” value was determined as 150. At mice brain MAO-B (after 5 h), the “activity of MAO-B recovered” value is 50%. On mice brain MAO-B (after 24 h), the “activity of MAO-B recovered” value is about 95%. In addition, in the data set “in vitro”, the Papp – broadly, a coefficient for how fast a substance crosses the barrier – at 20 h turned out to be 18.7 ± 1.12 ×10⁻⁶ cm/s and the “prediction of CNS penetration” value is listed as “CNS+ ^b (“CNS+” (prediction of high BBB permeation); Pe (10^–6 cm/s) > 4.39)”. In addition, in data set [2], the IC50 stood at 0.24 ± 0.01 µM and the “SI = IC50 of BChE/IC50 of AChE” value amounted to 26. Besides, on human MAO-A, the IC50 was 16.5 ± 0.66 µM. In data set [3], the “cytotoxicity on SH-SY5Y cells” value is recorded as “No cytotoxicity” and the “neurotoxicity on SH-SY5Y cells” value is “negligible neurotoxicity”.

Turning to `O=C1c2ccccc2C(=O)N1Cc1ccc(-c2cccc(C(F)(F)F)c2)cc1` [3f], in data set [1], the IC50 was found to be 17 ± 1.04 µM. On human MAO-B, the IC50 is 0.09 µM and 0.091 µM; the “SI (IC50 hMAO-A/IC50 hMAO-B)” value amounted to 124. Besides, the “activity of MAO-B recovered” value at mice brain MAO-B (after 24 h) is recorded as about 80%. In “in vitro”, the apparent permeability coefficient (Papp) at 20 h is 18.3 ± 1.27 ×10⁻⁶ cm/s and the “prediction of CNS penetration” value is “CNS+ (“CNS+” (prediction of high BBB permeation); Pe (10^–6 cm/s) > 4.39)”. For the same molecule, in [2], the IC50 came out at 4.48 ± 0.11 µM and the “SI = IC50 of BChE/IC50 of AChE” value was determined as 4. Also, the IC50 on human MAO-A was found to be 11.3 ± 0.2 µM. Further, in data set [3], the “cytotoxicity on SH-SY5Y cells” value is “No cytotoxicity” and the “neurotoxicity on SH-SY5Y cells” value is given as “negligible neurotoxicity”.

Take `O=C1c2ccccc2C(=O)N1C/C=C/CN1CCN(Cc2ccccc2)CC1` [III]: the inhibitory constant (Ki) (commonly the dissociation constant of the complex between target and ligand, obtained from inhibition or displacement) at AChE (read-out: AChE enzyme inhibition dissociation constant (Ki value)) is 193 µM.

In the case of `COc1cc(CN2C(=O)c3cc(Cl)c(Cl)cc3C2=O)cc(OC)c1OC` [II], the IC50 in the data set with AChE (reported in the literature, ref number not given) is 0.0135 µM.

Regarding `O=C1c2ccccc2C(=O)N1CCc1cc2ccccc2[nH]1` [IV], the Ki on BChE was 100 µM.

Take N-benzylphthalimide [V]: the IC50 in the data set with MAO-B is 10.5 µM.
